# Test results published in patent US8680071B2 (Idenix Pharmaceuticals, Inc., priority 2010, dated 2014).
# Where two headings read alike, the source gives them in different places.
# Legend:
# [1] = system: HCV Con1 subgenomic replicon; test: HCV replicon assay (NS4A ELISA); type: cell-based; details: Hepatitis C virus
# Description: (§1) Huh-7 cells containing HCV Con1 subgenomic replicon (GS4.1 cells), (C. Seeger; Fox Chase University, Philadelphia, Pa., USA), are grown in Dulbecco's Modified Eagle Medium (DMEM) supplemented with 10% fetal bovine serum (FBS), 2 mM L-glutamine, 110 mg/L sodium pyruvate, 1× non-essential amino acids, 100 U/mL penicillin-streptomycin and 0.5 mg/mL G418 (Invitrogen). For dose-response testing, the cells are seeded in 96-well plates at 7.5×10^3 cells/well in a volume of 50 μL and incubated at 37° C./5% CO2. Three hours after plating, 50 μL of ten 2-fold serial dilutions of compounds (highest concentration, 75 μM) are added and cell cultures were incubated at 37° C./5% CO2 in the presence of 0.5% DMSO. Alternatively, compounds are tested at a single concentration of 15 μM. In all cases, Huh-7 cells lacking the HCV replicon served as negative control. The cells are incubated in the presence of compounds for 72 hours after which they were monitored for expression of the NS4A protein by enzyme-linked immunosorbent assay (ELISA). For this, the plates were then fixed for 1 min with 1:1 acetone:methanol, washed twice with phosphate-buffered saline (PBS), 0.1% Tween 20, blocked for 1 hour at room temperature with TNE buffer containing 10% FBS and then incubated for 2 h at 37° C. with the anti-NS4A mouse monoclonal antibody A-236 (ViroGen) diluted in the same buffer. After washing three times with PBS, 0.1% Tween 20, the cells are incubated 1 hour at 37° C. with anti-mouse immunoglobulin G-peroxidase conjugate in TNE, 10% FBS. After washing as described above, the reaction is developed with O-phenylenediamine (Zymed). The reaction is stopped after 30 minutes with […] and the absorbance is read at 492 nm using a Sunrise Tecan spectrophotometer. EC50 values are determined from the % inhibition versus concentration data using a sigmoidal non-linear regression analysis based on four parameters with Tecan Magellan software. When screening at a single concentration, the results are expressed as % inhibition at 15 μM. For cytotoxicity evaluation, GS4.1 cells are treated with compounds as described above and cellular viability was monitored using a Cell Titer 96 AQueous One Solution Cell Proliferation Assay (Promega). CC50 values are determined from the % cytotoxicity versus concentration data with Tecan Magellan software as described above.
# Compounds presented in the table below were assayed according to the replicon assay described above.
# [2] = Cytotoxicity evaluation (Cell Titer 96 AQueous One Solution Cell Proliferation Assay); type: cell-based; details: human, GS4.1 cells, cellular viability, read-out: HCV Replicon CC50
# Description: as §1
# [3] = ELISA 2 assay, Huh-7 cells containing HCV Con1 subgenomic replicon (GS4.1 cells), 72 hours, NS4A expression, read-out: HCV Replicon EC50
# [4] = Huh-7, 72 h, read-out: HCV Replicon EC50 (μM)
Compound,"EC50 [1, 3] [µM]",CC50 at 72 h [2] [µM],"EC50 [1, 4] [µM]"
"C[C@@]1(O)[C@H](O)[C@@H](CO)O[C@H]1n1cnc2c(=O)[nH]c(N)nc21 [2′-C-methylguanosine, reference compound]",1 to 10,> 75,
COC(=O)C(CC(C)C)NP(=O)(NC(CC(C)C)C(=O)OC)OC[C@H]1O[C@@H](n2cnc3c(OC)nc(N)nc32)C(C)(O)C1O (stereo partly drawn) [Compound 3],< 1,> 75,
COC(=O)C(CC(C)C)NP(=O)(NC(CC(C)C)C(=O)OC)OC[C@H]1O[C@@H](n2cnc3c(OC)nc(N)nc32)[C@@]2(C)OC(=O)OC12 (stereo partly drawn) [Compound 4],< 1,> 75,
CCOC(=O)C(CC(C)C)NP(=O)(NC(CC(C)C)C(=O)OCC)OC[C@H]1O[C@@H](n2cnc3c(NC4CC4)nc(N)nc32)C(C)(O)C1O (stereo partly drawn) [Compound 6],< 1,> 75,
COC(=O)C(CC(C)C)NP(=O)(NC(CC(C)C)C(=O)OC)OC[C@H]1O[C@@H](n2cnc3c(NC4CC4)nc(N)nc32)C(C)(O)C1O (stereo partly drawn) [Compound 8],< 1,> 75,
COC(=O)C(CC(C)C)NP(=O)(NC(CC(C)C)C(=O)OC)OC[C@H]1O[C@@H](n2cnc3c(=O)[nH]c(N)nc32)C(C)(O)C1O (stereo partly drawn) [Compound 9],,> 75,1 to 10
C#CC1(F)C(O)[C@@H](COP(=O)(NCC(=O)OCC)NCC(=O)OCC)O[C@H]1n1cnc2c(=O)[nH]c(N)nc21 (stereo partly drawn) [Compound 48],,> 75,> 10
CCOC(=O)CNP(=O)(NCC(=O)OCC)OC[C@H]1O[C@@H](n2cnc3c(=O)[nH]c(N)nc32)C(C)(O)C1O (stereo partly drawn) [Compound 54],,> 75,1 to 10
C#C[C@@]1(F)[C@H](O)[C@@H](CO)O[C@H]1n1cnc2c(=O)[nH]c(N)nc21 [reference compound],> 10,> 75,
